The source of these data is ChEMBL document CHEMBL1201862, “PubChem BioAssay data set” (2004).

Activity calls are given as the source filed them.

For assay [1], the target named is Mitogen-activated protein kinase 13 (Homo sapiens, UniProt O15264). The assay is classed as functional.
In assay [2] the target is Mitogen-activated protein kinase kinase kinase kinase 5 (Homo sapiens, UniProt Q9Y4K4). The format is functional.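 Note: measured as one member of a kinome-spanning kinase panel.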
The target in assay [3] is Cyclin-dependent kinase 7 (Homo sapiens, UniProt P50613). The format is functional.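 Note: value comes from a kinome-wide kinase profiling panel in which CDK7 is one member.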
The subject of assay [4] is Streptococcus sp. 'group A'. Description: Streptococcus pyogenes SK(-)GAS viability under kanamycin – luminescence, BacTiterGlo, confirmation, counter-screen for streptokinase expression inhibitor project, dose response (AID 1900). The format is functional, organism-based.
In assay [5] the target is T1, Zinc finger protein mex-5 (Caenorhabditis elegans, UniProt Q9XUB2).
T1 sequence (Q9XUB2 whole entry): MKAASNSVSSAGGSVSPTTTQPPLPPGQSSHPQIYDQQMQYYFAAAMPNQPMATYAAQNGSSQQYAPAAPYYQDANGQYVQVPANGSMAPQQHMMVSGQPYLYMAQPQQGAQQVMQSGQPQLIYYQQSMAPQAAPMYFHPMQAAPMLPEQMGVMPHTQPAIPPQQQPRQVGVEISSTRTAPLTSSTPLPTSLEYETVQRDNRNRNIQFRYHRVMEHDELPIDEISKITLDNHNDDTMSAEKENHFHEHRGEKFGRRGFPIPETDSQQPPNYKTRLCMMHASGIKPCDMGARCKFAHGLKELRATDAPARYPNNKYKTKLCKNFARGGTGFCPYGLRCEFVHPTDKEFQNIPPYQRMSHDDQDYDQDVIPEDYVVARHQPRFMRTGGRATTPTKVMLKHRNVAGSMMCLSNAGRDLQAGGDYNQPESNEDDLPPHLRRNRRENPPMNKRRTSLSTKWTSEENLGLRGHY
Nature of the assay: potency of MEX-5 RNA-binding blockers – biochemical, C. elegans, fluorescence polarization, dose response (AID 1960). Background: In fluorescence polarisation assays a small probe gives low polarisation when free and higher when bound to something large.

A further assay deals with T2, Bcl-2-related protein A1 (Mus musculus, UniProt Q07440).
T2 sequence (Q07440 whole entry): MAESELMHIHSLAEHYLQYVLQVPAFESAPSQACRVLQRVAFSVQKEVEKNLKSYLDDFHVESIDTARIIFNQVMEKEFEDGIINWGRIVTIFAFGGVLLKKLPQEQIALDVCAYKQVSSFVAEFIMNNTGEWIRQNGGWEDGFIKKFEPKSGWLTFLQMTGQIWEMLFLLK
Nature of the assay: small-molecule antagonists of Bfl-1/BH3 interaction – biochemical, TR-FRET, mouse Bfl-1, confirmation (AID 621).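 Note: TR-FRET binding of GST-Bfl-1 to FITC-labelled Bid peptide via terbium antibody.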 A general note: TR-FRET usually uses a lanthanide donor and a delayed reading to cut background.

A further assay concerns the target 14-3-3 protein gamma (Homo sapiens, UniProt P61981). Nature of the assay: modulators of 14-3-3 gamma client binding – dose response (AID 711). The assay is classed as functional.
The target of assay [6] is Serine/threonine-protein kinase N2 (Homo sapiens, UniProt Q16513). The assay is classed as functional.
Assay [7] has as its target Interleukin-1 receptor-associated kinase 1 (Homo sapiens, UniProt P51617). The assay is classed as functional.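 Note: IRAK1 tested as one member of a kinome panel.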
Assay [8] has as its target Leucine-rich repeat serine/threonine-protein kinase 2 (Homo sapiens, UniProt Q5S007). The format is functional.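 Note: value from a broad kinome-wide panel profiling study in which LRRK2 was one of the kinases tested.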
Assay [9] deals with Vascular endothelial growth factor receptor 3 (Homo sapiens, UniProt P35916). The format is functional.
Assay [10] in a line: non-specific 3'UTR reporter inhibition in Clone20-Shn3RL – cell-based, Renilla luciferase, cherry-picked, counter-screen for Shn3 inhibitor project, dose response (AID 624133). The format is functional. Background: The purpose of a counterscreen is to sort out artefacts and off-target activity.
Assay [11] is described as follows: viability loss in CEM21 cells – cell-based, CellTiter-Glo luminescence, cherry-picked, cytotoxicity control for viral fusion inhibitor project, dose response (AID 652042).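 Note: potency for signal decrease meaning cytotoxicity.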 The assay is classed as functional.
A short description of assay [12]: blockers of HIV-1 ZM109 envelope-driven cell-cell fusion – HeLa effector, CEM target cells, luciferase, cherry-pick, dose response (AID 652058).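 Note: luciferase signal from HIV-1 Env mediated cell-cell fusion of effector and target cells.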 The assay is classed as functional, cell-based.
The target of assay [13] is T3, 1-phosphatidylinositol 4,5-bisphosphate phosphodiesterase beta-3 (Homo sapiens, UniProt Q01970).
T3 sequence (Q01970 whole entry): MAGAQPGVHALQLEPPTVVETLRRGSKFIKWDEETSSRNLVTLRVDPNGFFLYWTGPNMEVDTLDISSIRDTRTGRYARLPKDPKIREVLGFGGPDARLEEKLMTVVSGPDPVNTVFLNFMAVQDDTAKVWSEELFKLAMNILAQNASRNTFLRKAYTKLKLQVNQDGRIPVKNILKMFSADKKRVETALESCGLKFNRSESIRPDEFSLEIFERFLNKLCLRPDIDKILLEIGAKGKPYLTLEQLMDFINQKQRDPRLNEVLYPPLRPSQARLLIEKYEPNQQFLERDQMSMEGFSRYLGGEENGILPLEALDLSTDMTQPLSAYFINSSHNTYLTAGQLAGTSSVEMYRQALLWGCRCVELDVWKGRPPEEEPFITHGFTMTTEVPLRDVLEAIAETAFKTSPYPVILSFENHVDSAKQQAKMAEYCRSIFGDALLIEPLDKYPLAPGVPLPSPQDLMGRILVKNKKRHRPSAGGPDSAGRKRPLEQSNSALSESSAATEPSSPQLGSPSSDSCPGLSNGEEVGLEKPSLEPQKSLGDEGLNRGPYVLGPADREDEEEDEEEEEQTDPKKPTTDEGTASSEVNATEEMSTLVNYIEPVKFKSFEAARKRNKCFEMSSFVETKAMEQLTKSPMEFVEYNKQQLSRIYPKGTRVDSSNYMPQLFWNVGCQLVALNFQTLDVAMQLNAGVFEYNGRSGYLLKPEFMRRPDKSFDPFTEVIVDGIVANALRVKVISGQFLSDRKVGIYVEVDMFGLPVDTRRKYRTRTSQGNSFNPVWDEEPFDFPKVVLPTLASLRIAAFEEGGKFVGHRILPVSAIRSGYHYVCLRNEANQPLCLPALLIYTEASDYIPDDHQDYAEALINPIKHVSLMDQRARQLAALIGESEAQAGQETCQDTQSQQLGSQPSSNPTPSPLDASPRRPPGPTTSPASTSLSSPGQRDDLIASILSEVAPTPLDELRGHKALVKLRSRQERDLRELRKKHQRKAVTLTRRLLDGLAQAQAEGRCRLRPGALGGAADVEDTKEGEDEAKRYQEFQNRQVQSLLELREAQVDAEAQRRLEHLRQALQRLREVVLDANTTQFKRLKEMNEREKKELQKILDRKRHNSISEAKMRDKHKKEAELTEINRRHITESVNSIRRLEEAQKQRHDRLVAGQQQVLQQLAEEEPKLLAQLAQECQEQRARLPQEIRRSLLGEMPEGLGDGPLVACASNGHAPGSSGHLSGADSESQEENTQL
Description: Fluorescence-based biochemical high throughput dose response assay to identify inhibitors of phospholipase C isozymes (PLC-B3).

In general, Ki refers to a measure of affinity in units of concentration, obtained from inhibition or displacement. For orientation: EC50 means the concentration needed to bring the measured effect to its halfway point. Broadly, the IC50 is the midpoint of a concentration-inhibition curve. For orientation: AC50 means the concentration giving half of the maximal activity seen.

Chain of Serine/threonine-protein kinase N2 (Q16513 whole entry): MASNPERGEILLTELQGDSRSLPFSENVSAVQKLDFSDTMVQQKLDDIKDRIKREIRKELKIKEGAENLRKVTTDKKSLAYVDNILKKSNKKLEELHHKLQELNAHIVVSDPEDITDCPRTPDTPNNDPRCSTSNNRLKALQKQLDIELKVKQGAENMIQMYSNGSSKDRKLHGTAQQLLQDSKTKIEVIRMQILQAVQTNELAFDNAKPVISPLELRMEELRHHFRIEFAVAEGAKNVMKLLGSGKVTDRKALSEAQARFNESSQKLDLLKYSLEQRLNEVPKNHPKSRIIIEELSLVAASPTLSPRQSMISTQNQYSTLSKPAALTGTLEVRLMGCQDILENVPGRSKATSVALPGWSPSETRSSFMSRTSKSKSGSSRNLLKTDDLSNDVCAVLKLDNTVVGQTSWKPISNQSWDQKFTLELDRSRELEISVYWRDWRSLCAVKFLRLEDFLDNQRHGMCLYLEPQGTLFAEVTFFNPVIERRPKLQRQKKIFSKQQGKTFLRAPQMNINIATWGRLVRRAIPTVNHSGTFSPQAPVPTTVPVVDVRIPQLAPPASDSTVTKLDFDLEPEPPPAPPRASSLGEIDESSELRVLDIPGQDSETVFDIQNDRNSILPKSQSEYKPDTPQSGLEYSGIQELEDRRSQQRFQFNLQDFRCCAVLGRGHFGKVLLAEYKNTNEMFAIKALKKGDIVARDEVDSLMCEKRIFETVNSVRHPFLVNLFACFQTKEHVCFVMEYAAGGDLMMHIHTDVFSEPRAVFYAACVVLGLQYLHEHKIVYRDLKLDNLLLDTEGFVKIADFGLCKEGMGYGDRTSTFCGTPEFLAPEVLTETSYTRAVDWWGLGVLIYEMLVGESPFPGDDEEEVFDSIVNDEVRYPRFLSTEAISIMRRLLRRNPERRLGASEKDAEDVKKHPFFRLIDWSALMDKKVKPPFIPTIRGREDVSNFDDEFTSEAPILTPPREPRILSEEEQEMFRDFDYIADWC
Chain of Cyclin-dependent kinase 7 (P50613 whole entry): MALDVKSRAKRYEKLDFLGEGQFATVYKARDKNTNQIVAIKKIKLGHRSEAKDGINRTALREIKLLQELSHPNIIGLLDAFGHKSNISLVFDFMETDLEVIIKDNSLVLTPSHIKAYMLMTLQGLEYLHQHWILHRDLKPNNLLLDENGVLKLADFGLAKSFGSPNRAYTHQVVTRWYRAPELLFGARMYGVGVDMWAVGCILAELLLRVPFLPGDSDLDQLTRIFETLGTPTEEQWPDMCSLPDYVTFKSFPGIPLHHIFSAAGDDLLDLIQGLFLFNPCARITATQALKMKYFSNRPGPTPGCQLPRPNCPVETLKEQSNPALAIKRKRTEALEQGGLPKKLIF
Chain of Interleukin-1 receptor-associated kinase 1 (P51617 whole entry): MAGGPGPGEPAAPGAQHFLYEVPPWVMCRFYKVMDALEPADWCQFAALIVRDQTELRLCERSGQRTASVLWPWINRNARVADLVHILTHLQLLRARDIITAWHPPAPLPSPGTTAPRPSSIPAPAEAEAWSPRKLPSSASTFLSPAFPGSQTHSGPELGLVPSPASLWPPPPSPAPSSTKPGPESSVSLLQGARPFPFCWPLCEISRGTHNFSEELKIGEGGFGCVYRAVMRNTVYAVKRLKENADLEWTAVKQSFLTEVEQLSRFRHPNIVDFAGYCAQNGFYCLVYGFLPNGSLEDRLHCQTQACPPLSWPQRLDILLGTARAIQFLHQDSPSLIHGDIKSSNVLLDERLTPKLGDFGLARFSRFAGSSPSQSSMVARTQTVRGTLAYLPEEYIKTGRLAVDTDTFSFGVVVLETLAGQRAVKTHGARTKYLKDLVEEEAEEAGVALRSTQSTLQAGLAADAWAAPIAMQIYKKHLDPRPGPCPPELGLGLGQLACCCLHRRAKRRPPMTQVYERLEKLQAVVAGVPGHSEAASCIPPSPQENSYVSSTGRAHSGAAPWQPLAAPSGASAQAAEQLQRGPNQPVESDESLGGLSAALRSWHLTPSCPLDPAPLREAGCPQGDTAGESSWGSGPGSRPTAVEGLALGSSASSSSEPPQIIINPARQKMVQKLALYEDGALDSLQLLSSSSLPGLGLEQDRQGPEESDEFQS
Chain of Mitogen-activated protein kinase 13 (O15264 whole entry): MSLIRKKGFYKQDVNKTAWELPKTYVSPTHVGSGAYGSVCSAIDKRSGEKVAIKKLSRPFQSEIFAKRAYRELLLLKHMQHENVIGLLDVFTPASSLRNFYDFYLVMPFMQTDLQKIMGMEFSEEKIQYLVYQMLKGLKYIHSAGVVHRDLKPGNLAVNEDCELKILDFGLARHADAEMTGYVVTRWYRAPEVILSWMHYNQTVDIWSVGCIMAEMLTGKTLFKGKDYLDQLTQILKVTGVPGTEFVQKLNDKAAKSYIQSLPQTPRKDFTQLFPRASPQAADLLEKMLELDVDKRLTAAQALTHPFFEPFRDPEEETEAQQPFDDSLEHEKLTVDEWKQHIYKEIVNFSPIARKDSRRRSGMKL
Chain of Mitogen-activated protein kinase kinase kinase kinase 5 (Q9Y4K4 whole entry): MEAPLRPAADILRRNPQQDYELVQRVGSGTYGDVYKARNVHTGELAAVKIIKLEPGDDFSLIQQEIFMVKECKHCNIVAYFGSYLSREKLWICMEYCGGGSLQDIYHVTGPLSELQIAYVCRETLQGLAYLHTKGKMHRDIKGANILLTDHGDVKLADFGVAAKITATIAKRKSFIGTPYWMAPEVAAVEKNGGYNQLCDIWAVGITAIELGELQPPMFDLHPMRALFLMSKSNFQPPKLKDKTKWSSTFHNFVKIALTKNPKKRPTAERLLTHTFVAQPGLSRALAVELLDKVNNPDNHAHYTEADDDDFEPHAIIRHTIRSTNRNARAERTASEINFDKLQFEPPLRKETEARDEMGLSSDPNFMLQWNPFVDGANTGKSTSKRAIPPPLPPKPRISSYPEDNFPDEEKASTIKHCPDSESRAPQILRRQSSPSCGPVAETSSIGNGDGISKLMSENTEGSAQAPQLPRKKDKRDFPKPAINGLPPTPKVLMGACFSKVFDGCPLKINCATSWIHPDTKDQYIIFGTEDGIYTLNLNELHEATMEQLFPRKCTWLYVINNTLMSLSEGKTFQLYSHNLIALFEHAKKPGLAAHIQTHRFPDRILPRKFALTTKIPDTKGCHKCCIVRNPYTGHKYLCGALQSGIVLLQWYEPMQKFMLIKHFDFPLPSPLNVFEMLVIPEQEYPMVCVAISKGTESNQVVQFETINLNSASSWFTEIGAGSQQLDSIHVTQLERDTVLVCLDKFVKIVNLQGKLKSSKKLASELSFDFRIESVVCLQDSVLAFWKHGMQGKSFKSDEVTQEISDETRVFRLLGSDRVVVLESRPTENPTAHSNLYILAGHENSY
Chain of Vascular endothelial growth factor receptor 3 (P35916 whole entry): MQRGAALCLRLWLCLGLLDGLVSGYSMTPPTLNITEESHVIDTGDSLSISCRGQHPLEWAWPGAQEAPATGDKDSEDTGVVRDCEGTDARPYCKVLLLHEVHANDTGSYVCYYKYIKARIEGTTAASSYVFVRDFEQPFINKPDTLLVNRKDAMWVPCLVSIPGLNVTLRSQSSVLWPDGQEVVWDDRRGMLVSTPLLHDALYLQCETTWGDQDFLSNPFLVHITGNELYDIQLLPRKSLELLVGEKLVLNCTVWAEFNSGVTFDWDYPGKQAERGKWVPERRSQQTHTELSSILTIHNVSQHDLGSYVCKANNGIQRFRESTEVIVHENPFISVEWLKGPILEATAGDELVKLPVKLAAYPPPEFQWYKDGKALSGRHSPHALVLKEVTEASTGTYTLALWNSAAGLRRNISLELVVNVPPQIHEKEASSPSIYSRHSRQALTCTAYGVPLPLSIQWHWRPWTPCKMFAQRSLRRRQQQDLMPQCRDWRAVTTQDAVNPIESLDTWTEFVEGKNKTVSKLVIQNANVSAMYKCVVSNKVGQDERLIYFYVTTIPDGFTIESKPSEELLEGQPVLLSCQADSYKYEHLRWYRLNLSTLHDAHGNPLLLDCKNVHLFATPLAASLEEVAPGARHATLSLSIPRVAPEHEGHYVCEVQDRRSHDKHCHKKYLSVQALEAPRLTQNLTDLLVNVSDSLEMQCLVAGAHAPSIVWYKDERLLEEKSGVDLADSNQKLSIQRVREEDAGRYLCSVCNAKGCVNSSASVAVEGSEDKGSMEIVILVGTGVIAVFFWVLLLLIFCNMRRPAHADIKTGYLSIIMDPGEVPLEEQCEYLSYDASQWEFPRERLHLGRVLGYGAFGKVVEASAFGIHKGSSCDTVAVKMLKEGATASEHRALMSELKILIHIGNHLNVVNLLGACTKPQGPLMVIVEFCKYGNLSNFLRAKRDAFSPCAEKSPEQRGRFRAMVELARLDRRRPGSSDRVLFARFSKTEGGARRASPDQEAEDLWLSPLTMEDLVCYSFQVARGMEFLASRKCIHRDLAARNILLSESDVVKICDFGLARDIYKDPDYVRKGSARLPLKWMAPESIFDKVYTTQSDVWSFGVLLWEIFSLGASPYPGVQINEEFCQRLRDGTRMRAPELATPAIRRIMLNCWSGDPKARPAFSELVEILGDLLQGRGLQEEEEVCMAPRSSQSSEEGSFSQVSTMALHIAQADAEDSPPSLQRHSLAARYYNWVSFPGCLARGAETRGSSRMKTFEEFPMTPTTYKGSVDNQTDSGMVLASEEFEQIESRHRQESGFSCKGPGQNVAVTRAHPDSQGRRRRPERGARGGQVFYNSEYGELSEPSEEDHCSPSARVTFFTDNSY
Chain of 14-3-3 protein gamma (P61981 whole entry): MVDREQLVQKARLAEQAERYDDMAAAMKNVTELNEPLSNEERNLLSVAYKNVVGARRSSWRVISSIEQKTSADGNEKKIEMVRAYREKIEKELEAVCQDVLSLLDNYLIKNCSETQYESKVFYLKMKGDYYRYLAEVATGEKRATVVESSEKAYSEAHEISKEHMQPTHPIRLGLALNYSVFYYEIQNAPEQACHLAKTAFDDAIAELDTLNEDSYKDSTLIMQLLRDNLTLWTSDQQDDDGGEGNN

In the case of `COc1cc2c(cc1F)C(c1ccccc1Cl)=Nc1c(n[nH]c1C)N2` [RG-1530], the Ki in [1] was > 7.94 µM (inactive); in assay [2], > 2.51 µM (inactive); in assay [3], 0.631 µM (active).

As to `O=C(O)c1ccc2c3c(ncnc13)-c1ccccc1C2=O`, the EC50 was 6.43 µM (active) in [4] and 31.9 µM (active) in [5]. Also, the results for the IC50 against Bcl-2-related protein A1 and at 14-3-3 protein gamma were > 100 µM (not active) and > 50 µM (not active), respectively.

Regarding `Cc1ccc2nccc(NC(=O)Nc3cccc(C(F)(F)F)n3)c2c1`, the Ki in assay [6] was > 7.94 µM (inactive); in [7], > 7.94 µM (inactive); in assay [8], > 2.51 µM (inactive); in assay [9], 1 µM (active).

Regarding `CCOC(=O)c1c2c(n(Cc3ccccc3)c1C)C(=O)C(=O)c1ccccc1-2`, the AC50 in assay [10] was 5.03 µM (active); in assay [11], 5.84 µM (active); in assay [12], 10.9 µM (active). For the same molecule, the IC50 in assay [13] is > 123 µM (inactive).
